Data as given in patent US20240252477A1, “NLRP3 INFLAMMASOME-INHIBITING COMPOUNDS AND THE USE THEREOF” (UNIVERSITA' DEGLI STUDI DI TORINO (60%), priority 2021, published 2024).

Experiments:
NLRP3 inflammasome = molecular target: T1, NLRP3 inflammasome (Homo sapiens, UniProt Q96P20); assay: NLRP3-dependent pyroptosis (LDH release) in PMA-differentiated THP-1 cells stimulated with LPS/ATP; assay type: cell-based; details: compounds at 10 μM for 1 hour; differentiated THP-1, LPS 10 μg/mL 4 hours, ATP 1.5 hours; read-out: Pyroptosis inhibition (% ± SEM)
T1 construct: The THP-1 cells were differentiated into macrophages by treating them with PMA 50 nM; endogenous in cells; host or cells: THP-1 (human monocytic leukaemia line), PMA-differentiated, primed with LPS, triggered with ATP
Experimental: THP-1 cells, a monocytic human cell line derived from the peripheral blood of a patient suffering from acute monocytic leukaemia (www.atcc.org), were cultured in RPMI 1640 medium (Aurogene, Rome, Italy), with the addition of foetal bovine serum (10%, Aurogene), L-glutamine (2 mM, Aurogene), penicillin (100 IU/ml, Aurogene) and streptomycin ([…], Aurogene). The medium was changed every 2-3 days, and the cells were maintained in an incubator at 37° C., with 5% CO2, and with suitable humidity.
The cells were seeded in 48-well plates (90.000 cells/well), and differentiated with phorbol 12-myristate 13-acetate (PMA—50 nM, 24 hours; Sigma-Aldrich). On the next day, the differentiated THP-1s were washed twice with the balanced saline solution phosphate-buffered saline (PBS), and stimulated with lipopolysaccharide (LPS) (10 μg/mL, 4 hours; Sigma-Aldrich), prepared in serum-free medium. After 4 hours the cells were incubated with the compounds at the concentration of 10 μM for 1 hour, operating in triplicate; INF176 and INF177 were tested at three different concentrations: […]. Finally, the cells were stimulated with ATP 5 mm for 1.5 hours. The supernatants were then harvested for the subsequent analyses.
LDH release into the supernatant obtained as described above was quantified using the CytoTox 96 nonradioactive cytotoxicity assay (Promega Corporation, Madison, […], USA), a colorimetric assay wherein LDH activity is measured with an NADH-dependent enzymatic reaction:
Briefly, an equal volume of CytoTox Reagent was added to the supernatant and, after 30 minutes' incubation, the reaction was stopped by adding the stop solution. The formazan concentration was determined by measuring absorbance, using a microplate reader (Victor X4—EnSight, PerkinElmer, Waltham, MA, USA), at λ=490 nm. Cell death was expressed according to the manufacturer's instructions.
The compound INF176 was tested to measure its ability to inhibit NLRP3-dependent cell pyroptosis in human macrophages, using the experimental protocol previously published [Cocco et al. 2017].
The THP-1 cells were differentiated into macrophages by treating them with PMA 50 nM (24 hours) and then with LPS (10 μg/mL) for 4 hours. The cells were treated with the compound (10 μM) for 1 hour. Pyroptosis was induced by treatment with ATP 5 mm. After 90 minutes, cell death was evaluated by measuring the LDH level in the cell supernatant using the CytoTox 96 Non-Radioactive Cytotoxicity Assay (Promega Corporation, Madison, […], USA).

Cytotoxicity (MTT assay) = assay type: cell-based, human; details: human; THP-1 cells, 72 hours' incubation
Experimental: The THP-1 cells were seeded in a 96-well plate (15.000 cells/well) and incubated with the test compounds at four different concentrations (0.1, 1, 10 and 100 μM), operating in triplicate. The cells were placed in an incubator at 37° C., with 5% CO2, and cell viability was measured after 72 hours' incubation, using the MTT assay. This is a colorimetric assay, based on conversion of water-soluble 3-(4,5-dimethylthiazol-2-yl)-2,5-diphenyltetrazolium bromide (MTT; Sigma-Aldrich) to a violet-coloured insoluble formazan, by the mitochondrial dehydrogenase present in the live cells. The formazan is solubilised in acidified isopropanol, and the concentration is determined by measuring absorbance with a microplate reader (Victor X4—Ensight, PerkinElmer) at λ=570 nm. Viability was expressed as a percentage of the viability of the control cells, which were either untreated or treated with the carrier. The IC50 was calculated with the Graph Pad Prism software.

T1 sequence (Q96P20 whole entry): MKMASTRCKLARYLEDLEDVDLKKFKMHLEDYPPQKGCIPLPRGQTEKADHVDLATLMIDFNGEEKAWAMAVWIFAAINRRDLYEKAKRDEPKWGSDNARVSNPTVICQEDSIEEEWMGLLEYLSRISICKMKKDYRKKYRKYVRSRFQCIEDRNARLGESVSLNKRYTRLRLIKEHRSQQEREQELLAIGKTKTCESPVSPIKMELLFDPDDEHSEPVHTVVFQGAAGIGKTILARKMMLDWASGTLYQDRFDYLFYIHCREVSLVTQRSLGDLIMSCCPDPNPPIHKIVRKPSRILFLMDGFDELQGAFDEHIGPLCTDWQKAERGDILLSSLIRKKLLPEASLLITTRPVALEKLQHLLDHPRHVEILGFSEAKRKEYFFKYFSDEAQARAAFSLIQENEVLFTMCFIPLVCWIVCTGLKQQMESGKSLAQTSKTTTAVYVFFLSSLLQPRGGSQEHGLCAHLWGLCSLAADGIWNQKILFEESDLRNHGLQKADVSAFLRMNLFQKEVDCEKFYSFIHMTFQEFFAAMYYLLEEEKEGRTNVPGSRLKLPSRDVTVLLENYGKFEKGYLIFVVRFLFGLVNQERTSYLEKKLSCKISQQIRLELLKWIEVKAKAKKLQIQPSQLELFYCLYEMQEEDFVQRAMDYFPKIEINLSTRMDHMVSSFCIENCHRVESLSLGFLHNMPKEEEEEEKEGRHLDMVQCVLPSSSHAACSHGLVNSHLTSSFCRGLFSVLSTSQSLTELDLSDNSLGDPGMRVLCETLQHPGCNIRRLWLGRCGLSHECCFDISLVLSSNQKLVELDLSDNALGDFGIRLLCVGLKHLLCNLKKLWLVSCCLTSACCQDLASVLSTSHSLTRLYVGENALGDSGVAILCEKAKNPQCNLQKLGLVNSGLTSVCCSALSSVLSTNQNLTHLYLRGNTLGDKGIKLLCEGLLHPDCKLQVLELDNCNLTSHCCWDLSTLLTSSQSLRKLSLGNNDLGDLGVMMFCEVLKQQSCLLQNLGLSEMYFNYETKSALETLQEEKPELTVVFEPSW

| Compound | inhibition at 10 µM (NLRP3 inflammasome) [%] | IC50 at 72 h (Cytotoxicity (MTT assay)) [µM] |
| --- | --- | --- |
| CCOC(=O)C(CSC1CCCCC1)Cc1ccccc1Cl (stereo not drawn) [INF110, ethyl 2-(2-chlorobenzyl)-3-(cyclohexylthio)propanoate] | < 10 | 66 ± 1.4 |
| CCOC(=O)C1CCCN(C(=O)/C(=C/c2ccccc2[N+](=O)[O-])CSc2ccccc2)C1 (stereo not drawn) [INF231, ethyl (Z)-1-(3-(2-nitrophenyl)-2-((phenylthio)methyl)acryloyl)piperidine-3-carboxylate] | 32.6 ± 19.8 |  |
| CCOC(=O)C(CN1CCCC1)C(O)c1ccccc1Cl (stereo not drawn) [INF37 (syn), ethyl 3-(2-chlorophenyl)-3-hydroxy-2-(pyrrolidin-1-ylmethyl)propanoate] |  | > 100 |
| CCOC(=O)C1CCN(C(=O)/C(=C/c2ccccc2Cl)CSC2CCCCC2)CC1 [INF188, ethyl (Z)-1-(3-(2-chlorophenyl)-2-((cyclohexylthio)methyl)acryloyl)piperidine-4-carboxylate] | < 10 | 58.6 ± 5.3 |
| CCOC(=O)[C@H]1CCCN(C(=O)[C@@H](CSc2ccccc2)Cc2ccccc2Cl)C1 (racemic) [INF184+INF185, ethyl 1-(2-(2-chlorobenzyl)-3-(phenylthio)propanoyl)piperidine-3-carboxylate] |  | 75.4 ± 2.6 |
| CCOC(=O)/C(=C/c1ccccc1Cl)CSCC(NC(C)=O)C(=O)O (stereo not drawn) [INF85] | 21.3 ± 4.6 | > 100 |
| CCOC(=O)C(Cc1ccccc1Cl)CS(=O)(=O)C1CCCCC1 (stereo not drawn) [INF111, ethyl 2-(2-chlorobenzyl)-3-(cyclohexylsulphonyl)propanoate] | < 10 | 98.1 ± 4.8 |
| CCOC(=O)C1CCCN(C(=O)/C(=C/c2cccc(Cl)c2)CSc2ccccc2)C1 (stereo not drawn) [INF230, ethyl (Z)-1-(3-(3-chlorophenyl)-2-((phenylthio)methyl)acryloyl)piperidine-3-carboxylate] | 39 ± 15.4 |  |
| NS(=O)(=O)c1ccc(CCNC(=O)/C(=C/c2ccccc2Cl)CSc2ccccc2)cc1 [INF220, (Z)-3-(2-chlorophenyl)-2-((phenylthio)methyl)-N-(4-sulphamoylphenethyl)acrylamide] | 73.9 ± 13.9 | > 62.5 |
| CCOC(=O)[C@@H](CS(=O)(=O)c1ccccc1)[C@H](O)c1ccccc1Cl (stereo in doubt) [INF45, ethyl 3-(2-chlorophenyl)-3-hydroxy-2-((phenylsulphonyl)methyl)propanoate] | 45.8 ± 6.7 | > 100 |
| CCOC(=O)[C@@H](CN1CCCC1)[C@H](O)c1ccccc1Cl (racemic) [INF37 syn] | 32.2 ± 5.7 |  |
| CCOC(=O)C(Cc1ccccc1Cl)CN1CCCC1 (stereo not drawn) [INF61, ethyl 2-(2-chlorobenzyl)-3-(pyrrolidine-1-yl)propanoate] | 41.7 ± 5.2 | > 100 |
| CCOC(=O)C1CCCN(C(=O)/C(=C/c2ccccc2Cl)CSC2CCCCC2)C1 (stereo not drawn) [INF194, ethyl (Z)-1-(3-(2-chlorophenyl)-2-((cyclohexylthio)methyl)acryloyl)piperidine-3-carboxylate] | < 10 | 78.3 ± 10.2 |
| CCOC(=O)/C(=C/c1ccccc1Cl)C[S+]([O-])c1ccccc1 (stereo not drawn) [INF50, (Z)-ethyl 3-(2-chlorophenyl)-2-((phenylsulphinyl)methyl)acrylate] | 41.1 ± 2.5 | 9.7 ± 0.2 |
| CCOC(=O)[C@@H](C[S+]([O-])c1ccccc1)[C@H](O)c1ccccc1Cl (mixture of isomers) [INF44, ethyl 3-(2-chlorophenyl)-3-hydroxy-2-((phenylsulphinyl)methyl)propanoate] | < 10 | > 100 |
| CCOC(=O)/C(=C/c1ccccc1Cl)CS(=O)(=O)c1ccccc1 [INF51, ethyl (Z)-3-(2-chlorophenyl)-2-((phenylsulphonyl)methyl)acrylate] | 38.9 ± 4.5 | 20.1 ± 14.3 |
| CCOC(=O)[C@H](CN1CCCC1)[C@H](O)c1ccccc1Cl (stereo in doubt) [INF37 anti] | 21.1 ± 2.9 |  |

Continued, in another order:

| inhibition at 10 µM (NLRP3 inflammasome) [%] | Compound | IC50 at 72 h (Cytotoxicity (MTT assay)) [µM] |
| --- | --- | --- |
| 33.6 ± 1.2 | CCOC(=O)C(Cc1ccccc1Cl)C[S+]([O-])c1ccccc1 (stereo not drawn) [INF48, ethyl 2-(2-chlorobenzyl)-3-(phenylsulphinyl)propanoate] | > 35.1 |
| 23.5 ± 4.2 | CCOC(=O)[C@@H](CSc1ccccc1)[C@H](O)c1ccccc1Cl (mixture of isomers) [INF38s, Ethyl(2S,3S)-3-(2-chlorophenyl)-3-hydroxy-2-(phenylsulphanylmethyl)-propanoate and ethyl(2R,3R)-3-(2-chlorophenyl)-3-hydroxy-2-(phenylsulphanylmethyl)propanoate] | > 100 |
| < 10 | CCOC(=O)C1CCN(C(=O)C(CSc2ccccc2)Cc2ccccc2Cl)CC1 (stereo not drawn) [INF186, ethyl 1-(2-(2-chlorobenzyl)-3-(phenylthio)propanoyl)piperidine-4-carboxylate] | 94.6 ± 4 |
| 69.1 ± 2.2 | CCOC(=O)/C(=C/c1ccccc1Cl)CSc1ccccc1 [INF42, ethyl (Z)-3-(2-chlorophenyl)-2-((phenylthio)methyl)acrylate] | > 100 |
| < 10 | O=C(O)C1CCN(C(=O)/C(=C/c2ccccc2Cl)CSc2ccccc2)CC1 [INF187, (Z)-1-(3-(2-chlorophenyl)-2-((phenylthio)methyl)acryloyl)piperidine-4-carboxylic acid] | > 100 |
| 19 ± 4.1 | CCCNC(=O)/C(=C/c1ccccc1Cl)CSc1ccccc1 [INF82, (Z)-3-(2-chlorophenyl)-2-((phenylthio)methyl)-N-propylacrylamide] | 63.3 ± 1.3 |
| 13.8 ± 7.1 | CCOC(=O)C1CCN(C(=O)/C(=C/c2ccccc2Cl)CSc2ccccc2)CC1 [INF180, ethyl (Z)-1-(3-(2-chlorophenyl)-2-((phenylthio)methyl)acryloyl)piperidine-4-carboxylate] | > 100 |
| 50.6 ± 5.8 | CCOC(=O)C(Cc1ccccc1Cl)CS(=O)(=O)c1ccccc1 (stereo not drawn) [INF49, ethyl 2-(2-chlorobenzyl)-3-(phenylsulphonyl)-propanoate] | > 100 |
| 26.9 ± 4.9 | CCOC(=O)[C@H](CSc1ccccc1)[C@H](O)c1ccccc1Cl (mixture of isomers) [INF38a, Ethyl(2S,3S)-3-(2-chlorophenyl)-3-hydroxy-2-(phenylsulphanylmethyl)-propanoate and ethyl(2S,3R)-3-(2-chlorophenyl)-3-hydroxy-2-(phenylsulphanylmethyl)propanoate] | > 100 |
| 62.2 ± 9.78 | CCOC(=O)C1CCCN(C(=O)C(CSC2CCCCC2)Cc2ccccc2Cl)C1 (stereo not drawn) [INF192, ethyl 1-(2-(2-chlorobenzyl)-3-(cyclohexylthio)propanoyl)piperidine-3-carboxylate] | 59.8 ± 0.7 |
| < 10 | CCOC(=O)[C@@H]1CCCN(C(=O)[C@@H](CSc2ccccc2)Cc2ccccc2Cl)C1 (racemic) [INF185, ethyl 1-(2-(2-chlorobenzyl)-3-(phenylthio)propanoyl)piperidine-3-carboxylate] |  |
| 40.9 ± 1.2 | CCOC(=O)[C@@H]1CCCN(C(=O)/C(=C/c2ccccc2Cl)CSc2ccccc2)C1 [INF202, ethyl (R,Z)-1-(3-(2-chlorophenyl)-2-((phenylthio)methyl)acryloyl)piperidine-3-carboxylic acid] |  |
| 14.4 ± 4.3 | CCOC(=O)[C@H]1CCCN(C(=O)/C(=C/c2ccccc2Cl)CSc2ccccc2)C1 [INF203, ethyl (S,Z)-1-(3-(2-chlorophenyl)-2-((phenylthio)methyl)acryloyl)piperidine-3-carboxylate] |  |
